Experimental data from patent US20240067693A1, “POLYPEPTIDES AND USES THEREOF” (MEDIMMUNE LIMITED, priority 2020, published 2024).
Numbered stars: 1 amine (or outer) side, 2 acyl side, 3 side chain; on linkers, the order of the positions; unused ones are H or OH. Bridge positions count the residues as written; N and C are the ends. Square brackets hold non-standard residues; d marks the D form. Side chains are listed from the residue outwards. Peptide text beside a SMILES is read from it. * marks the point of attachment. C18 diacid = O=C(O)CCCCCCCCCCCCCCCCC(=O)*; γGlu = O=C(O)[C@H](CCC(=O)[*:2])N[*:1]; Aib = CC(C)(N)C(=O)O

What was measured:
[1] = molecular target: T1, human amylin receptor (calcitonin receptor co-expressed with receptor activity modifying protein, RAMP3) (hAMYR3) (Homo sapiens, UniProt O60896+P30988); experiment: cAMP production in 1321N1 cells with stable recombinant expression of human amylin receptor (hAMYR3); format: cell-based; settings: for Ratio (selectivity hAMYR vs hCTR, ratio of EC50 values at the two receptors): EC50 hCTR / EC50 hAMYR3; for EC50: cAMP, 1321N1 cells, assay buffer with 0.1% BSA, read-out: EC50 (pM) hAMYR3
T1 construct: expressed in transfected cells
T1 sequence (P30988 25-474): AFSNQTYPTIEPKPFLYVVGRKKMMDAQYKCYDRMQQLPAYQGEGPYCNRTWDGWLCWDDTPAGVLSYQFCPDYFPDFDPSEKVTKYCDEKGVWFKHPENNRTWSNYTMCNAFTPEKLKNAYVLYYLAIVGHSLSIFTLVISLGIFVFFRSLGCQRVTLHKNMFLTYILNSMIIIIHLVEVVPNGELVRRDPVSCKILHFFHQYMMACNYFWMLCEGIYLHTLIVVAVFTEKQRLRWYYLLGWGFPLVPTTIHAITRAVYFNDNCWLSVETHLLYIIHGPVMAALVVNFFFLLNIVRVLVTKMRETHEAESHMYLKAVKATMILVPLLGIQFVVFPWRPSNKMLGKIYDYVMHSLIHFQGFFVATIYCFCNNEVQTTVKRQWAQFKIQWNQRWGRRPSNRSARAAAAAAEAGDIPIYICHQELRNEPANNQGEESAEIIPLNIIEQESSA
T1 sequence (O60896 24-148 partner): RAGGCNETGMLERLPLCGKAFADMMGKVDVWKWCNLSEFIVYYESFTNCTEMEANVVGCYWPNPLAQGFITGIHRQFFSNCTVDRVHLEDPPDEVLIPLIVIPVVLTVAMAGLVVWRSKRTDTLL
Summary of the method: (§1)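 Thawed cells in HBSS/0.1% BSA/25 mM HEPES pH 7.4 with 0.5 mM IBMX were incubated with peptides 30 min at room temperature; cAMP read by HTRF. EC50 from 4-parameter fit of % activation relative to maximal amylin or calcitonin effect.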

[2] = Thioflavin T fibrillation assay; format: physicochemical; settings: ThT fibrillation assay; peptide 1 mg/mL in 25 mM sodium acetate buffer pH 4.0; 6 days at 37 °C with shaking; >144 h = no increase
Summary of the method: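 Peptides at 1 mg/mL in 25 mM sodium acetate pH 4.0 with ThT (from 0.25 mM stock), incubated 6 days at 37 °C with intermittent orbital shaking at 500–750 rpm. Fluorescence (ex 444/em 480 nm) read every 30 min; value is average time to a rise in baseline-corrected signal.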

[3] = molecular target: T2, human calcitonin receptor (hCTR) (Homo sapiens, UniProt P30988); experiment: cAMP production in 1321N1 cells with stable recombinant expression of human calcitonin receptor (hCTR); format: cell-based; settings: cAMP, 1321N1 cells, assay buffer with 0.1% BSA; read-out: EC50 (pM) hCTR
T2 construct: expressed in transfected cells
T2 sequence (P30988 25-474): T1 sequence (P30988 25-474)
Summary of the method: as §1

[4] = molecular target: T3, rat calcitonin receptor (rat CTR) (Rattus norvegicus, UniProt P32214); experiment: cAMP production in HEK cells with stable recombinant expression of rat calcitonin receptor (rat CTR); format: cell-based; settings: assay buffer with 0.1% BSA
T3 construct: expressed in transfected cells
T3 sequence (P32214 25-516): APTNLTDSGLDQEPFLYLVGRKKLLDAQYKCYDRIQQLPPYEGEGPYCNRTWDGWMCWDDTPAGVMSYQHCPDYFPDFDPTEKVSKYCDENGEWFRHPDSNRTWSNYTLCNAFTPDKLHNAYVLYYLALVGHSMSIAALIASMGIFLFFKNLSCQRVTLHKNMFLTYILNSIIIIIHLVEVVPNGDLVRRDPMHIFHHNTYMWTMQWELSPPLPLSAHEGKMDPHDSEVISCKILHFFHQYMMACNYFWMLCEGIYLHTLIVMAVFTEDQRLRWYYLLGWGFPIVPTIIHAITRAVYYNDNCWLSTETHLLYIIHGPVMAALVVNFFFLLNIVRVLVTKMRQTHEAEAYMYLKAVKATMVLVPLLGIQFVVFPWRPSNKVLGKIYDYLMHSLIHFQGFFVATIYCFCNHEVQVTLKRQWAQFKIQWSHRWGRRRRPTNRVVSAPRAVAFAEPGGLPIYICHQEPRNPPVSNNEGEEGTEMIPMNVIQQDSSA
Summary of the method: as §1

| SMILES | Ratio (selectivity hAMYR vs hCTR, ratio of EC50 values at the two receptors) [1] | EC50 [1] [pM] | Time taken to detect increase in fluorescence intensity [2] [h] | EC50 [3] [pM] | EC50 [4] [pM] |
| --- | --- | --- | --- | --- | --- |
| CC[C@H](C)[C@H](NC(=O)[C@@H]1CCCN1C(=O)CNC(=O)[C@H](Cc1ccccc1)NC(=O)[C@H](CC(N)=O)NC(=O)C(C)(C)NC(=O)[C@H](CO)NC(=O)[C@H](CO)NC(=O)[C@H](Cc1c[nH]cn1)NC(=O)[C@@H](NC(=O)[C@H](CC(C)C)NC(=O)[C@H](Cc1ccccc1)NC(=O)[C@H](CC(N)=O)NC(=O)[C@H](C)NC(=O)[C@H](CC(C)C)NC(=O)[C@H](CCCNC(=N)N)NC(=O)[C@H](CCC(N)=O)NC(=O)[C@@H](NC(=O)[C@H](C)NC(=O)[C@@H]1CSSC[C@H](NC(=O)[C@H](CCCCN)NC(=O)[C@@H](N)CCCCNC(=O)CC[C@H](NC(=O)CCCCCCCCCCCCCCCCC(=O)O)C(=O)O)C(=O)N[C@@H](CC(N)=O)C(=O)N[C@@H]([C@@H](C)O)C(=O)N[C@@H](C)C(=O)N[C@@H]([C@@H](C)O)C(=O)N1)[C@@H](C)O)C(C)C)C(=O)N[C@@H](CC(C)C)C(=O)N1CCC[C@H]1C(=O)N1CCC[C@H]1C(=O)N[C@H](C(=O)N[C@@H](Cc1c[nH]cn1)C(=O)N[C@H](C(=O)NCC(=O)N[C@@H](CO)C(=O)N[C@@H](CC(N)=O)C(=O)N[C@H](C(=O)N[C@@H](Cc1ccc(O)cc1)C(N)=O)[C@@H](C)O)C(C)C)[C@@H](C)O [Peptide 40, K(γE-C18diacid)K[CNTATC]ATQRLANFLVHSS(Aib)NFGPILPPTHVGSNTY-amide] (H-K([γGlu-C18 diacid])KCNTATCATQRLANFLVHSS[Aib]NFGPILPPTHVGSNTY-NH2; disulfide 3-8) | 15 | 228 | >144 | 3330 | 782 |
| CC[C@H](C)[C@H](NC(=O)[C@H](C)NC(=O)[C@@H]1CCCN1C(=O)[C@H](Cc1ccccc1)NC(=O)[C@H](CC(N)=O)NC(=O)C(C)(C)NC(=O)[C@H](CO)NC(=O)[C@H](CO)NC(=O)[C@H](Cc1c[nH]cn1)NC(=O)[C@@H](NC(=O)[C@H](CC(C)C)NC(=O)[C@H](Cc1ccccc1)NC(=O)[C@H](CC(N)=O)NC(=O)[C@H](C)NC(=O)[C@H](CC(C)C)NC(=O)[C@H](CCCNC(=N)N)NC(=O)[C@H](CCC(N)=O)NC(=O)[C@@H](NC(=O)[C@H](C)NC(=O)[C@@H]1CSSC[C@H](NC(=O)[C@@H](N)CCCCNC(=O)CC[C@H](NC(=O)CC[C@H](NC(=O)CCCCCCCCCCCCCCCCC(=O)O)C(=O)O)C(=O)O)C(=O)N[C@@H](CC(N)=O)C(=O)N[C@@H]([C@@H](C)O)C(=O)N[C@@H](C)C(=O)N[C@@H]([C@@H](C)O)C(=O)N1)[C@@H](C)O)C(C)C)C(=O)N[C@@H](CC(C)C)C(=O)N[C@@H](CO)C(=O)N1CCC[C@H]1C(=O)N[C@H](C(=O)N[C@@H](CC(N)=O)C(=O)N[C@H](C(=O)NCC(=O)N[C@@H](CO)C(=O)N[C@@H](CC(N)=O)C(=O)N[C@H](C(=O)N[C@@H](Cc1ccc(O)cc1)C(N)=O)[C@@H](C)O)C(C)C)[C@@H](C)O [Peptide 9, K(γE-γE-C18diacid)[CNTATC]ATQRLANFLVHSS(Aib)NFPAILSPTNVGSNTY-amide] (H-K([γGlu-γGlu-C18 diacid])CNTATCATQRLANFLVHSS[Aib]NFPAILSPTNVGSNTY-NH2; disulfide 2-7) | 42 | 320 | 7 | 13500 | 9720 |
